Laboratory results published in patent publication US9249106B2, “Substituted hydrazide compounds and use thereof” (Shenyang J & Health Pharmaceutical Co., Ltd., priority 2009, dated 2016).
In brackets after ≈: the same amount, converted by molar mass. Counter-ions that a name gives are not always drawn.

What was measured:
[1] = test system: SK-N-SH (human neuroblastoma cell); assay: Antitumor activity assay in vitro (MTT); type: cell-based; conditions: SK-N-SH cells, 72 hours, Bliss method; for IC50: Homo sapiens
Method: (§1) (1) Five cell strains, SK-N-SH (human neuroblastoma cell), NCI-H226 (human lung cancer cell), Bel7402 (human liver cancer cell), A549 (human non-small cell lung cancer), and MCF7 (human breast cancer cell), were thawed and stably passaged for two or three times, respectively, and then digested with trypsin solution (0.25%) so as to be removed from the bottom of culture flasks. The digested cell solution was poured into a centrifuge tube, to which culture media was added to stop the digestion. The centrifuge tube was centrifuged at 1300 r/min for 3 min, the supernatant was removed gently and then 5 mL culture media was added. The cells were pipetted and mixed homogeneously. 10 μL cell suspension was taken into a cell counting plate for counting, wherein the cell concentration was adjusted to 10^4 cells/well. Each well of the 96-well plates, except for A1 well as blank control, contained 100 μL cell suspension. The 96-well plates were placed in an incubator and cultivated for 24 hours.
(§2) (2) 50 μL dimethyl sulfoxide was used to dissolve the test samples, and then a suitable amount of culture media was added so as to reach a final concentration of 2 mg/mL. Then the samples were diluted to 100, 20, 4, 0.8, 0.16 μg/mL in a 24-well plate, respectively. […] The 96-well plates were placed in an incubator and cultivated for 72 hours.
(§3) (3) The culture media containing the compounds in the 96-well plates was discarded, and the cells were washed with phosphate buffered solution (PBS) twice. Each well was added with 100 μL MTT (tetrazole) (0.5 mg/mL), and then placed in an incubator to incubate for 4 hours, after which MTT solution was discarded and 100 μL dimethyl sulfoxide was added thereto. The reaction product of survival cells with MTT, i.e. formazan, was dissolved completely by oscillation on a magnetic oscillator, then placed into a microplate reader to measure the results, and the IC50 values of compounds could be deduced by Bliss method. The control, N′-[(2-hydroxy-3-allyl)phenylmethylene]-2-(4-benzylpiperazin-1-yl)acethydrazide(PAC-1), was produced according to the method of patent WO2008/134474 A2.

[2] = test system: NCI-H226 (human lung cancer cell); assay: Antitumor activity assay in vitro (MTT); type: cell-based; conditions: NCI-H226 cells, 72 hours, Bliss method; for IC50: Homo sapiens, read-out: IC50 NCI-226
Method: as §1, §2, §3

[3] = test system: Bel7402 (human liver cancer cell); assay: Antitumor activity assay in vitro (MTT); type: cell-based; conditions: 72 hours, Bliss method; for IC50 Bel7402: Bel7402 cells; for IC50: Homo sapiens, Bel-7402, Bel7402 cells
Method: as §1, §2, §3

[4] = test system: A549 (human non-small cell lung cancer); assay: Antitumor activity assay in vitro (MTT); type: cell-based; conditions: A549 cells, 72 hours, Bliss method; for IC50: Homo sapiens
Method: as §1, §2, §3

[5] = test system: MCF7 (human breast cancer cell); assay: Antitumor activity assay in vitro (MTT); type: cell-based; conditions: MCF7 cells, 72 hours, Bliss method; for IC50: Homo sapiens
Method: as §1, §2, §3

Procaspase-3 = molecular target: T1, Procaspase-3 (Homo sapiens, UniProt P42574); conditions: both in vitro and in vivo; cited from earlier work
T1 sequence (P42574 1-277): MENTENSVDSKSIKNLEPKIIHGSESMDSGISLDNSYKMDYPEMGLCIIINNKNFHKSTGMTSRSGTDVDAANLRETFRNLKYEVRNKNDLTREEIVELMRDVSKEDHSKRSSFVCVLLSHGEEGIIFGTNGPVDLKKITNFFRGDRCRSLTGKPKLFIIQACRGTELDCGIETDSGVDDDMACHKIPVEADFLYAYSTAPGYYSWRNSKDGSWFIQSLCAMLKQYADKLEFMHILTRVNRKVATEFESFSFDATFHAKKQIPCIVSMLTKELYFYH

cancer cells = conditions: after treatment with PAC-1; cited from earlier work

Row | Compound | IC50 SK [1] | IC50 NCI-226 [2] | IC50 Bel7402 [3] | IC50 A549 [4] | IC50 MCF7 [5] | IC50 [1] | IC50 [2] | IC50 [3] | IC50 [4] | IC50 [5] | activation of Procaspase-3 (Procaspase-3) | time to induction of apoptosis of cancer cells after treatment (cancer cells)
1 | CC(C)(C)c1cc(C=NNC(=O)c2ccc3nc[nH]c3c2)c(O)c(C(C)(C)C)c1.Cl [Example 1, N′-[(2-hydroxy-3,5-di-tert-butyl)phenylmethylene]-1H-benzo[d]imidazole-6-formhydrazide hydrochloride] | 0.08 µg/mL | 0.07 µg/mL | 0.56 µg/mL | 0.4 µg/mL | 0.8 µg/mL | – | – | – | – | – | – | –
2 | Cc1ccc(C=NNC(=O)c2ccc3nc[nH]c3c2)c(O)c1.Cl [Example 2, N′-[(2-hydroxy-4-methyl)phenylmethylene]-1H-benzo[d]imidazole-6-formhydrazide hydrochloride] | 2.1 µg/mL | 1.0 µg/mL | 2.4 µg/mL | 1.9 µg/mL | 1.8 µg/mL | – | – | – | – | – | – | –
3 | O=C(NN=Cc1c(O)ccc2ccccc12)c1ccc2nc[nH]c2c1 [Example 3, N′-[(2-hydroxy-1-naphthyl)methylene]-1H-benzo[d]imidazole-6-formhydrazide hydrochloride] | – | – | – | – | – | 3 µg/mL | 1.1 µg/mL | 2.5 µg/mL | 0.7 µg/mL | 1.2 µg/mL | – | –
4 | C=CCc1cccc(C=NNC(=O)c2ccc3nc[nH]c3c2)c1O.Cl [Example 4, N′-[(2-hydroxy-3-allyl)phenylmethylene]-1H-benzo[d]imidazole-6-formhydrazide hydrochloride] | 1.3 µg/mL | 0.2 µg/mL | 1.3 µg/mL | 2 µg/mL | 3.3 µg/mL | – | – | – | – | – | – | –
5 | Cc1cc(C)c(C=NNC(=O)c2ccc3nc[nH]c3c2)c(O)c1C.Cl [Example 6, N′-[(2-hydroxy-3,4,6-trimethyl)phenylmethylene]-1H-benzo[d]imidazole-6-formhydrazide hydrochloride] | 1.8 µg/mL | 1.7 µg/mL | 2.6 µg/mL | 3.1 µg/mL | 3.2 µg/mL | – | – | – | – | – | – | –
6 | Cc1ccc(O)c(C=NNC(=O)c2ccc3nc[nH]c3c2)c1.Cl [Example 7, N′-[(2-hydroxy-5-methyl)phenylmethylene]-1H-benzo[d]imidazole-6-formhydrazide hydrochloride] | 3.2 µg/mL | 2.7 µg/mL | 5.4 µg/mL | 12 µg/mL | 1.9 µg/mL | – | – | – | – | – | – | –
7 | Cc1ccc(C(C)C)c(C=NNC(=O)c2ccc3nc[nH]c3c2)c1O.Cl [Example 8, N′-[(2-hydroxy-3-methyl-6-isopropyl)phenylmethylene]-1H-benzo[d]imidazole-6-formhydrazide hydrochloride] | 3.0 µg/mL | 1.0 µg/mL | 2.4 µg/mL | 1.5 µg/mL | 1.7 µg/mL | – | – | – | – | – | – | –
8 | Cl.O=C(NN=Cc1ccc(OCc2ccc(Cl)cc2)cc1O)c1ccc2nc[nH]c2c1 [Example 9, N′-{[2-hydroxy-4-(4-chlorobenzyloxy)]phenylmethylene}-1H-benzo[d]imidazole-6-formhydrazide hydrochloride] | 0.2 µg/mL | 0.5 µg/mL | 1.5 µg/mL | 0.9 µg/mL | 0.6 µg/mL | – | – | – | – | – | – | –
9 | O=C(NN=Cc1ccccc1O)c1ccc2nc[nH]c2c1 [Example 11, N′-[(2-hydroxy)phenylmethylene]-1H-benzo[d]imidazole-6-formhydrazide hydrochloride] | – | – | – | – | – | 2.7 µg/mL | 2.3 µg/mL | 3.2 µg/mL | 10 µg/mL | 2.3 µg/mL | – | –
10 | Cl.O=C(NN=Cc1cc(OCc2ccc(Cl)cc2)ccc1O)c1ccc2nc[nH]c2c1 [Example 12, N′-{[2-hydroxy-5-(4-chlorobenzyloxy)]phenylmethylene}-1H-benzo[d]imidazole-6-formhydrazide hydrochloride] | 3.0 µg/mL | 1.7 µg/mL | 3.3 µg/mL | 5.8 µg/mL | 2.1 µg/mL | – | – | – | – | – | – | –
11 | Cl.O=C(NN=Cc1ccc(OCc2ccccc2)cc1O)c1ccc2nc[nH]c2c1 [Example 13, N′-[(2-hydroxy-4-benzyloxy)phenylmethylene]-1H-benzo[d]imidazole-6-formhydrazide hydrochloride] | 1.1 µg/mL | 2.4 µg/mL | 3.7 µg/mL | 2.6 µg/mL | 1.8 µg/mL | – | – | – | – | – | – | –
12 | C=CCN1C(=O)NC(=O)C(C=NNC(=O)c2ccc3nc[nH]c3c2)C1=O (centres unmarked) [Example 14, N′-[(1-allyl-2,4,6-pyrimidinetrione-5-yl)methylene]-1H-benzo[d]imidazole-6-formhydrazide] | – | – | – | – | – | 0.9 µg/mL (≈ 2.54 µM) | 2.5 µg/mL (≈ 7.06 µM) | 2.2 µg/mL (≈ 6.21 µM) | 10 µg/mL (≈ 28.2 µM) | 1.7 µg/mL (≈ 4.8 µM) | – | –
13 | Cl.O=C(NN=Cc1cc(OCc2cccc(Cl)c2)ccc1O)c1ccc2nc[nH]c2c1 [Example 18, N′-{[2-hydroxy-5-(3-chlorobenzyloxy)]phenylmethylene}-1H-benzo[d]imidazole-6-formhydrazide hydrochloride] | 1.7 µg/mL | 2.3 µg/mL | 3.1 µg/mL | 1.5 µg/mL | 2.7 µg/mL | – | – | – | – | – | – | –
14 | Cl.O=C(Cc1nc2ccccc2[nH]1)NN=Cc1cc(C(=O)CCl)ccc1O [Example 22, N′-[(2-hydroxy-5-chloroacetyl)phenylmethylene]-1H-benzo[d]imidazole-2-acethydrazide hydrochloride] | 1.0 µg/mL | 0.8 µg/mL | 0.5 µg/mL | 1.7 µg/mL | 3.4 µg/mL | – | – | – | – | – | – | –
15 | Cc1cc(C)c(C=NNC(=O)Cc2nc3ccccc3[nH]2)c(O)c1C.Cl [Example 23, N′-[(2-hydroxy-3,4,6-trimethyl)phenylmethylene]-1H-benzo[d]imidazole-2-acethydrazide hydrochloride] | 0.3 µg/mL | 0.3 µg/mL | 3.1 µg/mL | 2.4 µg/mL | 2.6 µg/mL | – | – | – | – | – | – | –
16 | Cl.O=C(Cc1nc2ccccc2[nH]1)NN=Cc1cc(OCc2ccccc2)ccc1O [Example 25, N′-[(2-hydroxy-5-benzyloxy)phenylmethylene]-1H-benzo[d]imidazole-2-acethydrazide hydrochloride] | 0.4 µg/mL | 1.6 µg/mL | 3.7 µg/mL | 4.1 µg/mL | 1.0 µg/mL | – | – | – | – | – | – | –
17 | C=CCc1cccc(/C=N/NC(=O)CN2CCN(Cc3ccccc3)CC2)c1O [PAC-1, N′-[(2-hydroxy-3-allyl)phenylmethylene]-2-(4-benzylpiperazin-1-yl)acethydrazide, reference compound] | – | – | – | – | – | 4.3 µg/mL (≈ 11 µM) | 1.7 µg/mL (≈ 4.33 µM) | 3.8 µg/mL (≈ 9.68 µM) | 1.9 µg/mL (≈ 4.84 µM) | 2.6 µg/mL (≈ 6.62 µM) | activate Procaspase-3 significantly | ≤ 23 h
18 | N′-{[2-hydroxy-3-(1-methyl-2-allyl)]phenylmethylene}-1H-benzo[d]imidazole-6-formhydrazide hydrochloride [Example 10] | 1.1 µg/mL | 1.0 µg/mL | 3.3 µg/mL | 1.2 µg/mL | 3.8 µg/mL | – | – | – | – | – | – | –
